Laboratory results as given in patent publication US20260199485A1, “RNA DEGRADERS AND USES THEREOF” (Arrakis Therapeutics, Inc., priority 2022, published 2026).
{DBCO-TEG} = DBCO-TEG group for click conjugation of the bait; l = locked nucleic acid (LNA); d = 2'-deoxy (DNA)

Experiments:
[1] = test system: Renilla STAT3 3′UTR reporter; assay: Cellular dual luciferase reporter assay (Renilla STAT3 3′UTR reporter, tagged CNOT7) in H1299 cells; type: cell-based; conditions: 10 nM, 30 nM, 100 nM ASO-bait, 24 hours, with CNOT7, relative to non-targeting ASO-bait
Source text: Reporter constructs for cellular assays are depicted in FIG. 12. A luciferase reporter construct was designed to the 3′ UTR of STAT3 fused to Renilla luciferase, which contains the PEST and CP1 destabilizing domains. A second luciferase reporter construct was designed using the 3′UTR of HBB fused to Firefly luciferase, which contains the PEST and CP1 destabilizing domains. The reporter design for both constructs was previously described in Luo E C, et al. Nat Struct Mol Biol. 2020; 27(10):989-1000.
An antisense oligo was conjugated to the bait molecule AP1867, which binds FKPB12 via click-chemistry to generate a heterobifunctional molecule (ASO-bait). The bait molecule was chemically modified to contain an azide to allow for click chemistry. […]
A model system to interrogate the ability of a bifunctional RNA binder—CNOT7 binder is depicted in FIG. 13. A parallel approach utilizing a luciferase readout together with mRNA expression analysis was employed to assess the bifunctional molecule's capability to recruit CNOT7 to target mRNA and mediate mRNA degradation. […] A parallel plate was assessed for cell viability using CellTiter Glo (Promega). Data was analyzed by normalizing reporter signal relative to normalizer signal, and this ratio was then normalized to GFP. […]

STAT3 mRNA = assay: Endogenous STAT3 mRNA expression assay (ddPCR) in H1299 cells expressing tagged CNOT7; type: cell-based; conditions: 200 nM ASO-bait, 24 hours, with CNOT7, relative to non-targeting ASO-bait and GFP control
Procedure: For the endogenous mRNA expression assay, H1299 cells were seeded in a 12-well plate the day before transfection. On the following day, the cells were transfected with the plasmid expressing tagged CNOT7 and incubated for 24 hours. The following day, cells were transfected with 200 nM of the targeting or non-targeting ASO-bait molecules and incubated for 24 hours. In addition, cells were also transfected with a known STAT3 silencing ASO as a positive control for STAT3 mRNA knockdown. Samples were directly lysed in-well for RNA purification using the Promega Maxwell Automated RNA Extractor, followed by single-strand cDNA synthesis. The resulting cDNA was serially diluted at 1:100, which was used in the ddPCR reaction with primers designed to STAT3 and housekeeping genes (CLTC and TBP), the sequences of which are shown below. Data were analyzed by normalizing STAT3 relative to the geomean of TBP and CLTC. All transfections were performed using Lipofectamine 3000 (Invitrogen). […] Thus, the bifunctional molecule is capable of accelerating the degradation of endogenously expressed RNA.

## targeting ASO-bait: "An antisense oligo was conjugated to the bait molecule AP1867"; oligonucleotide binds "a sequence in the 3′UTR of STAT3" (SEQ ID NO:3) (antisense GAAGTACACATTGG; sugars from the 5' end dldldldldldldl, all phosphorothioate, 5' {DBCO-TEG}, methylation of C not given here; Bait AP1867 attached by click chemistry to the 5' DBCO-TEG)
[1]
  reporter signal (Renilla STAT3 3′UTR normalized to Firefly HBB and GFP): reduction in reporter signal
STAT3 mRNA
  STAT3 expression (mRNA, ddPCR, normalized to TBP and CLTC): reduction in STAT3 expression
